# Values joined by “and” are separate entries in the source; they are usually repeats but may differ in a detail not shown here. Equal values may be shown once.
# Columns and labels:
# [1] = tested on: Mouse Model of Chemotherapy-Induced POF; experiment: Chemotherapy (cyclophosphamide)-induced premature ovarian failure; type: in vivo, C57BL/6J mice; conditions: for body weight / ovarian coefficient (ratio of ovarian weight to body weight) / ovarian weight: 30 mg/kg oral gavage, FIG. 67; for serum FSH level / serum E2 level / BDNF level in ovarian tissues: 30 mg/kg; for serum FSH level: FIG. 68; for serum E2 level: FIG. 69; for BDNF level in ovarian tissues: FIG. 70; for effect of TJ01-013 compared with I-14-1: b553: ovarian coefficient, b560: FSH concentration, serum E2 level and BDNF level
# Description: Eight-week-old C57BL/6J mice (weighing about 20-25 g) were selected and adaptively fed for 7 d firstly, after which they were randomly divided into three groups according to their body weights, namely, the control group (Control, n=8), the model group (Cy, treated with the solvent 0.5% CMC-Na, n=8), and the TJ01-013 treatment group (Cy+TJ01-013, 30 mg/kg TJ01-013 by oral gavage, n=8). kg TJ01-013, n=8), I-14-1 treatment group (Cy+I-14-1, 30 mg/kg I-14-1 by oral gavage, n=8). The model group and the TJ01-013 treatment group received a single intraperitoneal injection of cyclophosphamide (75 mg/kg, 200-300 μl), and the control group received a single intraperitoneal injection of an equal volume of saline. Samples were collected after 12 days of administration, and body weights, ovary weights, and levels of the serum hormones E2 and FSH of the mice were measured.
# The body weight and bilateral ovarian wet weight of each group of mice were weighed with an electronic balance and an analytical balance respectively, and the ovarian organ coefficient of each group was calculated according to the body weight of mice (g) and bilateral ovarian wet weight (mg). The formula is: […]
# After the experiment reached the end point, blood was collected from the orbit, and the blood was centrifuged at 12,000 g for 10 min after standing still at room temperature for 45 min, and the supernatant (serum) was taken, and the levels of E2, FSH and BDNF in serum were detected by ELISA.
# The mice were euthanized after reaching the end point of the experiment, and the levels of BDNF in the ovarian tissues were assayed by ELISA after the ovaries were extracted and ground.
# [2] = tested on: Natural Aging POF model (NA-POF); experiment: Natural aging ovarian insufficiency (NA-POF); type: in vivo, C57BL/6J mice; conditions: for body weight / ovarian coefficient / ovarian weight: FIG. 71; for serum E2 levels: FIG. 73
# Description: The Natural Aging POF model (NA-POF) simulates conditions of progressive ovarian degeneration. Female C57BL/6J mice of 9-10 months of age were purchased and raised to 12 months old, and then the mice were randomly divided into three groups, namely, the control group (Control, 0.5% CMC-Na by oral gavage, n=8), the TJ01-013-treated group (TJ01-013, 30 mg/kg TJ01-013 by oral gavage, n=8), the I-14-1 treatment group (I-14-1, 30 mg/kg I-14-1 by oral gavage, n=8), and were administered daily for 30 days. At the endpoint of the experiment, body weight, ovarian weight, ovarian organ coefficient, serum hormone E2 and FSH levels in mice were measured. The body weight and bilateral ovarian wet weight of each group of mice were weighed with an electronic balance and an analytical balance respectively, and the ovarian organ coefficient of each group of mice was calculated according to the body weight of the mice (g) and the wet weight (mg) of the bilateral ovaries. […] After the experiment reached the end point, orbital blood collection was carried out, and the blood was centrifuged at 12000 g for 10 min after standing still at room temperature for 45 min, and the supernatant (serum) was taken, and the levels of E2 and FSH in serum were detected by ELISA.
# [3] = tested on: rats of adenine induced kidney injury model; experiment: Adenine-induced kidney injury; type: in vivo, SD rats
# Description: Adenine-induced kidney injury is an animal model of chronic kidney injury. The model was prepared as follows: 1500 mg/kg of potassium oxonate and 50 mg/kg of adenine were ground and suspended in 0.5% carboxymethylcellulose sodium (CMC-Na) solution and gavaged once a day in a volume of 10 mL/kg for 180-200 g male SD rats, and an equal dose of 0.5% CMC-Na solution was gavaged for the sham group. After 1 week of modeling, serum creatinine (Cr) was measured weekly to determine whether the model was successful or not; in this experiment, there was a statistically significant difference in serum creatinine elevation on the 21st day of modeling compared with that of the sham group, at this time, administration in group was initiated, and the shock modeling with 1500 mg/kg of potassium oxonate and 50 mg/kg of adenine was continued daily along with the administration. The test was divided into three groups according to the serum creatinine level, sham operation group (sham group, without adenine modeling and vehicle treatment by oral gavage), control group (model control group, vehicle treatment by oral gavage), and 15 mg/kg group (15 mg/kg compound I-1 by oral gavage), and the dosage was once a day in the volume of 10 ml/kg for 21 consecutive days. […] At the end of the administration, blood was collected from the heart, and the blood was centrifuged at 12000 g for 10 minutes at 4° C. after standing at room temperature for 45 minutes, and the supernatant (serum) was extracted to measure the levels of creatinine and uric acid in the serum. After euthanasia of rats at endpoint of test, rats were dissected and kidneys were taken, of which 4 kidneys were fixed with 4% paraformaldehyde for 48 h, embedded in paraffin, sectioned, and HE stained, the specific staining operation was as described above. The left kidney tissue was taken and ground, and the inflammatory factors IL-10 and TNFα were detected by Elisa method.
compound,measurement,setting,value
O=C(O)C[S+]([O-])c1cc(NS(=O)(=O)c2ccc(Br)cc2)c2ccccc2c1O (centres unmarked) [I-1],body weight,[1],no significant change
same,ovarian coefficient (ratio of ovarian weight to body weight),[1],significantly elevated
same,ovarian weight,[1],significantly elevated
same,serum FSH level,[1],significantly decreased
same,serum E2 level,[1],increased significantly
same,BDNF level in ovarian tissues,[1],increased significantly
same,effect of TJ01-013 compared with I-14-1,[1]; listed as TJ01-013,more effective
same,effect of TJ01-013 compared with I-14-1,[1]; listed as TJ0113,better
same,body weight,[2]; 30 mg/kg daily 30 days,no significant change
same,ovarian coefficient,[2]; 30 mg/kg daily 30 days,significantly elevated
same,ovarian weight,[2]; 30 mg/kg daily 30 days,significantly elevated
same,serum FSH level,"[2]; 30 mg/kg daily 30 days, FIG. 72",decreased significantly
same,serum E2 levels,[2]; 30 mg/kg daily 30 days,increased significantly
same,"improvement of ovarian function, TJ0113 compared with I-14-1",[2]; both 30 mg/kg,more effective
same,body weight,"[3]; 15 mg/kg oral gavage, 21 days, FIG. 9",no significant change
same,TNF-α level in kidney tissues,"[3]; 15 mg/kg, 21 days, FIG. 12",significantly decreased
same,renal histopathology (HE staining),"[3]; 15 mg/kg, 21 days, FIG. 13",improved the histopathology of adenine-induced renal injury to some extent
same,serum urea nitrogen level,"[3]; 15 mg/kg, 21 days, P<0.05, FIG. 11",significantly decreased
same,Serum creatinine decreased by,"[3]; 15 mg/kg, after 21 days, P<0.05, FIG. 10",20.7%
same,"Renal lesion (number of kidneys, n = 4)","[3]; Degree of lesion + (mild lesions), 15 mg/kg",1/4 and 1
same,"Renal lesion (number of kidneys, n = 4)","[3]; Degree of lesion ++ (moderate lesions), 15 mg/kg",3/4 and 3
same,"Renal lesion (number of kidneys, n = 4)","[3]; Degree of lesion +++ (severe lesions), 15 mg/kg",0
same,"Renal lesion (number of kidneys, n = 4)","[3]; Degree of lesion ± (slight lesions), 15 mg/kg",0
same,"Renal lesion (number of kidneys, n = 4)","[3]; Degree of lesion − (no lesions), 15 mg/kg",0
O=C(O)C[S+]([O-])c1cc(NS(=O)(=O)c2ccc(C(F)(F)F)cc2)c2ccccc2c1O (centres unmarked) [I-14-1],body weight,[1],no significant change
same,ovarian coefficient (ratio of ovarian weight to body weight),[1],significantly elevated
same,ovarian weight,[1],significantly elevated
same,serum FSH level,[1],significantly decreased
same,serum E2 level,[1],increased significantly
same,BDNF level in ovarian tissues,[1],increased significantly
same,body weight,[2]; 30 mg/kg daily 30 days,no significant change
same,ovarian coefficient,[2]; 30 mg/kg daily 30 days,rising trend
same,ovarian weight,[2]; 30 mg/kg daily 30 days,significantly elevated
same,serum E2 levels,[2]; 30 mg/kg daily 30 days,increased significantly
"O=C(O)CSc1cc(NS(=O)(=O)c2ccc(Br)cc2)c2ccccc2c1O [UMI-77, reference compound]",treatment of adenine-induced renal injury compared with I-1,[3]; UMI-77 vs I-1,less effective
